This note sets out measurements from the NIST ThermoML archive (doi:10.1016/j.jct.2013.08.023).

± gives the expanded uncertainty stated by the source.

The nature of data set [1]: refractive index (Na D-line) (dimensionless). The conditions noted are these: 298.15 K; 101 kPa; Liquid; Standard Abbe refractometry.
The conditions of data set [2]: 298.15 K; 101 kPa; Liquid; Vibrating tube method.

By refractive index is commonly meant the speed of light in vacuum divided by its phase velocity in the sample. Usually mass density stands for the mass of a sample divided by its volume. In the case of `CCCC[N+](C)(C)C.O=S(=O)([N-]S(=O)(=O)C(F)(F)F)C(F)(F)F` [butyltrimethylammonium bis(trifluoromethylsulfonyl)imide], the refractive index in data set [1] is 1.40806 ± 0.00031. The mass density in data set [2] is listed as 1393 ± 0.2 kg/m3.

Consider `CCO` [ethanol], for which the refractive index in data set [1] is 1.35936 ± 0.00037. For the same compound, in data set [2], the mass density worked out at 785.9 ± 0.2 kg/m3.

For the compound `CCCCCCC` [heptane], the refractive index in data set [1] is given as 1.38529 ± 0.00037. Further, the mass density in data set [2] was 679.6 ± 0.3 kg/m3.

For the compound `CCCCCC` [hexane], the refractive index in data set [1] is 1.37241 ± 0.00037. For the same compound, the mass density in data set [2] turned out to be 655.2 ± 0.3 kg/m3.

For `CO` [methanol], the refractive index in data set [1] is given as 1.32636 ± 0.00037. In data set [2], the mass density turned out to be 786.9 ± 0.2 kg/m3.

For the compound `CCCC[N+](C)(CCCC)CCCC.O=S(=O)([N-]S(=O)(=O)C(F)(F)F)C(F)(F)F` [tributylmethylammonium bis((trifluoromethyl)sulfonyl)imide], the refractive index in data set [1] came out at 1.42614 ± 0.00032. Further, the mass density in data set [2] is reported as 1261.3 ± 0.2 kg/m3.
